Data as given in patent US20110142889A1, “COMPOSITIONS AND METHODS FOR ORAL DRUG DELIVERY” (NOD Pharmaceuticals, Inc., priority 2009, published 2011).

Assays:
blood glucose = assay: effect of oral insulin on blood glucose in somatostatin infused dogs (Example 9); format: in vivo, beagle dogs; settings: somatostatin infusion 1 μg/kg/min; FIG. 8B
From the text: Water was supplied ad libitum.

[1] = dog, in vivo
Protocol: The absorption of oral insulin was evaluated in beagles under somatostatin infusion at 1 μg/kg/min via an indwelling vein catheter.
Twelve beagle dogs with body weights between 8-12 kg were housed in an animal facility. The dogs were randomly divided into three groups and fasted overnight. Water was supplied ad libitum. Somatostatin infusion (1 μg/kg/min) was performed using a balloon infusion pump via an indwelling vein catheter, and tablets were fed with 10 ml water at 4 hr after initiation of somatostatin infusion. Food was restricted during the study, and blood samples were collected at various time points in heparinized tubes.
Blood glucose concentration was measured with a glucometer and matching testing strips (Johnson & Johnson, OneTouch®), and serum samples of 0.5-0.6 ml were recovered after blood samples were collected and centrifuged at 3000 rpm for 10 min. The samples were frozen at −20° C., and insulin concentration was measured by ELISA (Linco).

[2] = colon suppository containing 25 mg sodium caprate; cited from earlier work
[3] = estimated; cited from earlier work

Compound: insulin [Insulin injection]
- effect on blood glucose (blood glucose): rapid and profound reduction of glucose levels
- effect on serum insulin concentration [1]: large increase in insulin concentration

Compound: CC1(C)S[C@@H]2[C@H](NC(=O)[C@H](N)c3ccccc3)C(=O)N2[C@H]1C(=O)O [ampicillin]
- increase of area under the serum concentration-time curve (AUC) compared to ampicillin alone [2]: 2.3 fold
- increase of maximum serum concentration (Cmax) compared to ampicillin alone [2]: 2.6 fold

Compound: CCCCCCCCCC(=O)[O-].[Na+] [sodium caprate]
- concentration needed to achieve a permeation enhancing effect [3]: 10 to 13 mM
